According to patent publication US20260337177A1, “TEAD CORE INHIBITORS FOR CANCER THERAPEUTICS” (University of Florida Research Foundation, Incorporated, priority 2023, published 2026):
pIC50: −log10 of the molar value.

Assays:
[1] = tested on: AML12 cells; assay: AML12 normal liver cell growth inhibition (CCK8); assay type: cell-based
[2] = tested on: Hs578T cells; assay: Hs578T cell growth inhibition (CCK-8, 3 days); assay type: cell-based; conditions: Homo sapiens, Hs-578T, 72 h, triple negative breast cancer, read-out: Antiproliferative IC50, Hs578T
Description: The inhibitory effects of compound 22 were assessed against YAP TEAD related NF2-deficient mesothelioma cell NCI-H226 and triple negative breast cancer cell Hs578T. The growth inhibition ratio was measured using a CCK-8 assay after 3 days of treatments.

[3] = tested on: YAP-TEAD; assay: Co-immunoprecipitation of endogenous YAP and TEAD in NCI-H226 cells; assay type: cell-based
Description: To assess if compound 22 inhibits the interaction between YAP/TAZ and TEAD proteins within the cell, compound 22 was administered to NF2-deficient NCI-H226 cells for 24 hours. Subsequently, the endogenous TEAD protein was isolated through immunoprecipitation using a pan-TEAD antibody and examined the immunocomplexes for the presence of YAP/TAZ proteins using anti-YAP/TAZ antibodies (as depicted in FIG. 18).
[…] protein lysate extracted using lysis buffer were incubated with 5 μL pan-TEAD antibody (CST #13295, 33 g/ml) at 4 ° C overnight with rotation, and then incubated with 15 μL Protein G magnetic beads (Fisher #88847) at R.T. for 1 hour with rotation. After binding, beads were washed three times with lysis buffer and one time with ddH2O. IP samples were eluted using 1× gel loading buffer supplied with 20 mM DTT and boiled at 96 ° C for 10 min. […] protein lysate were used for input, and 3% IP flow-thru were used for binding efficiency control. *0 indicated DMSO control. For the detection process, primary antibodies used were: YAP/TAZ rabbit monoclonal antibody (mAb) at a dilution of 1:2000, CST #8418S; Pan-TEAD rabbit mAb at 1:2000, CST #13295S; and 3-actin mouse mAb at 1:8000, Sigma #A5316. Secondary antibodies applied in 1× TBST were: Rabbit IgG-HRP at 1:10000 and Mouse IgG-HRP also at 1:10000.

[4] = tested on: CTGF and CYR61; assay: CTGF and CYR61 expression in xenograft tumor tissue (western blotting); assay type: in vivo; conditions: vs vehicle groups
Text: To elucidate the mechanism of compound 22-mediated antitumor activity in vivo, the expression level of CTGF and CYR61 in the tumor tissue were examined by western blotting.

[5] = tested on: HB tumors; assay: Murine hepatoblastoma (HB) model, HDTV injection of S127A-YAP1 and ΔN90-β-catenin; assay type: in vivo, C57BL6 mice
Description: Using this model, the inhibitory effect of YAP inhibitor compound 22 on HB development was examined. In brief, following HDTV injection, the co-expression of constitutively active S127A-YAP1 and ΔN90 deletion-mutant β-catenin (ΔN90-β-catenin) via Sleeping Beauty-mediated somatic integration led to HB development in mouse livers. Plasmids carrying T3EF1α-YAPS127A (20 μg), pCMV-sleeping beauty transposase (SB, 0.8 μg), and pT3-EF1α-ΔN90-β-catenin (20 μg) were extracted using the Endotoxin-Free Maxiprep kit (Qiagen), diluted in 2 ml 0.9% sodium chloride solution, and injected via hydrodynamic tail vein injection (HDTV) into C57BL6 mice (6 week-old, body weight of 20 g). compound 22 or mock control (twice a week for three months, IP injection) were applied two weeks post the HDTV injection until two days before sacrifice. Low dose group received […] body weight and high dose group received […] body weight.
Tissues harvested from mice were fixed in 4% paraformaldehyde PBS solution for 24 hours, embedded in paraffin, and sectioned (6 μm). Standard staining protocols were performed for IHC using an ABC kit from Vector lab (Vector Laboratories, Inc., CA). The primary antibody was mouse anti-Ki67 antibody (catalogNCL-L-Ki67-MM1, 1:100 dilution) from Leica Biosystems (Deer Park, IL). Stained sections were detected using a microscope (Leica, Germany).
For drug assessment in the murine HB model, plasmids carrying T3EF1α-YAPS127A (20 μg), pCMV-sleeping beauty transposase (SB, 0.8 μg), and pT3-EF1α-ΔN90-β-catenin (20 μg) from Addgene (Watertown, MA) were used. The plasmids were extracted using the Endotoxin-Free Maxiprep kit (Qiagen, Redwood City, CA), diluted in 2 ml 0.9% sodium chloride solution, and injected via hydrodynamic tail vein injection (HDTV) into C57BL6 mice (n=15, 6 week old). Three weeks post the HDTV injection, compound 22 ([…] body weight) or mock control were applied twice a week for total 9 weeks via IP injection. Two days post last drug treatment, mice were euthanized and tumor tissues were subjected to molecular and histological characterizations.

[6] = tested on: CTGF; assay: CTGF protein expression by western blotting in Huh7 cells; assay type: cell-based, human; conditions: dose-dependent
Description: Treated Huh7 cells were harvested and lysed in cold RIPA lysis buffer containing […] and phosphatase inhibitors. The protein concentrations were determined using the BCA Protein Assay kit. The prepared protein samples were loaded on and separated by 10% SDS-PAGE gel and then were transferred to PVDF membrane. Blots were blocked for 1 h at RT in blocking buffer and incubated with corresponding primary antibodies: anti-CTGF (ab227180), and anti-GAPDH (ab9485), at 4 ° C overnight. Then the blots were incubated with HRP-conjugated anti-rabbit secondary antibody in blocking buffer for 1.5 h at RT. The membranes were imaged with ChemiDoc MP imaging system.

[7] = tested on: CYR61; assay: CYR61 mRNA expression by RT-qPCR in HepG2 cells; assay type: cell-based, human; conditions: dose-dependent
Description: Huh7 and HepG2 liver cancer cells were seeded at 1×10^6 cells/dish and allowed to adhere overnight. The cells were then treated with indicated doses of compounds in medium for 24 hours. The cells were then harvested, and total RNA was purified using the Aurum total RNA mini kit (Bio-Rad #732-6820) according to the manufacturer's instructions. Complementary DNA was synthesized from 500 ng total RNA template by iScript reverse transcription kit (Bio-Rad #1725037) according to the manufacturer's instructions. Real-time PCR reactions utilized 60 ng cDNA and PrimePCR primers from Bio-Rad (Unique Assay ID: human GAPDH-qHsaCEP0041396, human CTGF-qHsaCEP0024255, human CYR61-qHsaCEP0024230) designed for SYBR Green gene expression analysis (Bio-Rad #1726270). All reactions were carried out in triplicate using Quant Studio 3 PCR system (Applied Biosystems). Relative gene expression level was quantified via ΔΔCt method by using GAPDH as an endogenous reference.

[8] = tested on: Huh7 cells; assay: MTT assay, Huh7 viability; assay type: cell-based, human; conditions: FIG. 9

For O=C(CCl)c1c[nH]c2cc(Cl)c(OCc3cccc(C(F)(F)F)c3)cc12 [Compound 22, 2-chloro-1-(6-chloro-5-((3-(trifluoromethyl)benzyl)oxy)-1H-indol-3-yl)ethan-1-one], the “Toxicity towards normal liver cell line AML12” value [1] was “least toxic”, the “Inhibitory rate, AML12 (inhibitory percentage of AML12 cell growth)” value ([1]; 10 μM, 3 days) was 22.1% and the pIC50 [2] was 5.59. For the same compound, the “Co-IP of YAP with pan-TEAD antibody” value ([3]; 1 μM, 24 hours) was “significantly diminished”, the “Interaction between YAP and TEAD” value ([3]; "2.5 M", 24-hour treatment) was “almost entirely inhibited” and the “CTGF expression in tumor tissue” value [4] was “remarkable decrease”. The “CYR61 expression in tumor tissue” value [4] was “remarkable decrease”, the “HB tumors, occurrence and size” value ([5]; 25 mg/kg body weight, twice a week for 9 weeks, IP) was “notable reduction in both the occurrence and size of HB tumors” and the “Number of proliferating cells (IHC)” value ([5]; 25 mg/kg, Cyclin D1 / Ki67 (FIG. 23B)) was “decreased number of proliferating cells”. The “Ccnd1, CTGF, Cyr61, Afp, and Gpc3 mRNAs in livers” value ([5]; real time qRT-PCR, 25 mg/kg) was “lower levels”, the “CTGF and Cyr61 proteins in livers” value ([5]; western blotting, 25 mg/kg) was “decreased CTGF and Cyr61” and the “CTGF protein expression, Huh7” value [6] was “suppression of CTGF protein production”. The “CYR61 mRNA expression, HepG2” value [7] was “significantly inhibited” and the “Huh7 viability, MTT assay” value [8] was “inhibits”.
